What was measured:
[1] = system: Human hepatoma cell lines HepG2 and Hep3B; assay: In vitro effects of control substances on hepatoma cell lines (RT-PCR, immunohistochemistry, morphology); assay type: cell-based; details: for apoptosis / proliferation: HepG2 and Hep3B; for regulation effect on in vitro differentiation of hepatocellular carcinoma cell lines: background statement of inventors' study
Method: Human hepatoma cell lines HepG2 and Hep3B were inoculated onto the six-well plate with a concentration of 5×10^5 cells/dish, and the all-trans retinoic acid, somatostatin, tumor necrosis factor, and arsenic trioxide were added respectively. The total RNA was extracted by Trizol kit, and reverse transcriptase reaction was carried out for 2 hrs. 1 μl diluted reverse transcription product was taken and used as template for PCR amplification to detect the mRNA expression of liver cell-related function genes. The proliferation and apoptosis related proteins such as Cyclin, Bax, Bcl-2 and so on was measured by immunohistochemistry.

[2] = system: solid tumors; assay: In vivo study of control substances on solid tumor differentiation; details: background statement of inventors' study
[3] = system: Human hepatoma cell lines HepG2 and Hep3B; assay: Flow cytometry of CD133+ cell proportion; assay type: cell-based; details: data not shown
Method: 1. […] After 24 hrs, the medium was replaced with fresh DMEM culture solution containing 10% FBS. After three days, the cells were collected, and the CD133/1-PE (Miltenyi Biotec, Auburn, Calif.) was used as primary antibody for incubation, and the proportion of CD133+ cells was determined by flow cytometry.

Compound	apoptosis [1]	proliferation [1]	regulation effect on in vitro differentiation of hepatocellular carcinoma cell lines [1]	in vivo induction of differentiation of solid tumors [2]	differentiation induction effect on tumor stem cells [3]
arsenic trioxide	significantly increased	reduced	no drugs or proteins with clear differentiation therapy effects	can not effectively induce the differentiation of solid tumors	no significant differentiation induction effect
CC1=C(/C=C/C(C)=C/C=C/C(C)=C/C(=O)O)C(C)(C)CCC1 [all-trans retinoic acid]	–	–	no drugs or proteins with clear differentiation therapy effects	can not effectively induce the differentiation of solid tumors	no significant differentiation induction effect
tumor necrosis factor	significantly increased	reduced	no drugs or proteins with clear differentiation therapy effects	can not effectively induce the differentiation of solid tumors	–

From patent US20110077206A1, “USE OF HNF4ALPHA FOR TREATMENT OF HUMAN MALIGNANT SOLID TUMORS THROUGH INDUCTION-DIFFERENTIATION THERAPY” (SECOND MILITARY MEDICAL UNIVERSITY, priority 2008, published 2011)
